Values of other authors as cited in US12377118B2, “Nanoparticle constructs for systemic co-delivery of anti-tumor agents” (CASE WESTERN RESERVE UNIVERSITY, priority 2019, dated 2025).

System: 4T1 orthotopic mammary tumor
Details: i.t.

Q: For `Nc1nc2c(ncn2[C@@H]2O[C@@H]3COP(=O)(O)O[C@H]4[C@@H](O)[C@H](n5cnc6c(=O)[nH]c(N)nc65)O[C@@H]4COP(=O)(O)O[C@H]3[C@H]2O)c(=O)[nH]1` [free cdGMP, cyclic diguanylate monophosphate], which “dose needed to regress early 4T1 primary tumors” value is on record?
A: The value was “up to 50 μg”.
